Data on one compound can be found in US20230066156A1, “6-SUBSTITUTED, 22-CYANO HYODEOXYCHOLANIC ANALOGUES AND USES THEREOF” (PRECISION BIO-THERAPEUTICS S.R.L., priority 2019, published 2023).

Molecules are shown by their SMILES.

In the test the test system is TNBS-induced colitis. Nature of the test: TNBS-induced colitis in Gpbar1+/+ and Gpbar1-/- mice. Format: in vivo. The following applies: for development and severity of colitis assessed by body weight lost, CDAI and histological sections: 30 mg/kg daily by o.s., FIG. 2A-C. As for the experimental part:
Because macrophages are one of the most abundant leucocytes in the intestinal mucosa and are implicated in the pathogenesis of IBDs (Inflammatory bowel diseases), the effect of PBT110B was investigated in a TNBS-induced colitis (2,4,6-trinitrobenzene sulfonic acid-induced) in Gpbar1+/+ and Gpbar1-/- mice. Gpbar1+/+ and Gpbar1-/- mice were treated with TNBS alone or in combination PBT110B (30 mg/kg). […] In addition, the expression of pro- and anti-inflammatory cytokines in the colon of these animals (FIG. 3) was analyzed. Gpbar1^+/+ and Gpbar1^-/- mice were treated with TNBS alone or in combination PBT110B (30 mg/kg). Values are normalized relative to Gapdh mRNA and are expressed as mean±SEM (n=5); ^#p<0.05. GPBAR1 null mice on C57BL/6NCrl background, and C57BL/6NCrl congenic littermates were originally donated by Dr. […] (Schering-Plough Research Institute, Kenilworth). The colonies were maintained in the animal facility of University of Perugia. Mice were housed under controlled temperatures (22° C.) and photoperiods (12:12-hour light/dark cycle), allowed unrestricted access to standard mouse chow and tap water and allowed to acclimate to these conditions for at least 5 days before inclusion in an experiment. The study was conducted in agreement with the Italian law and the protocol was approved by ethical committee of University of Perugia and by a National Committee of Italian Ministry of Health permit n° 1126/2016-PR. The health and body conditions of the animals were monitored daily by the veterinarian in the animal facility. The study protocol caused minor suffering, however, animals that lost more than 25% of the initial body weight were euthanized. Colitis was induced in mice by TNBS. Mice were fasted for 12 h (day -1) and the day after (day 0) mice were anesthetized, and a 3.5 F catheter inserted into the colon such that the tip was 3 cm proximal to the anus. To induce colitis, 1 mg of 2,4,6-trinitrobenzenesulfonic acid TNBS (Sigma Chemical Co, St Louis, Mo.) in 50% ethanol was administered via catheter into the lumen using a 1 ml syringe (injection volume of 200 μL); control mice received 50% ethanol alone. Animals were monitored daily. At the end of the experiments, the surviving mice were sacrificed and the colon was excised, weighed, and evaluated for macroscopic damage. In some groups of mice, PBT110B dissolved in nitrocellulose 1% was administered daily also by o.s. at the concentration of 30 mg/kg of body weight The severity of colitis was measured each day for each mouse by assessing the body weight, the fecal blood and stool consistency. Each parameter was scored from 0 to 4 and the sum represents the Colitis Disease Activity Index (CDAI). The scoring system was as following: percent of body weight loss: none=0; 1-5%=1; 5-10%=2; 10-20%=3; >20%=4. Stool consistency: normal=0; soft but still formed=1; very soft=2; diarrhea=3; liquid stools that stick to the anus or anal occlusion=4. Fecal blood: none=0; visible in the stool=2; severe bleeding with fresh blood around the anus and very present in the stool=4. Samples of distal colon (2-3 cm from the anus) were fixed in buffered formalin, cut into 5-μm-thick sections (150 μm between each section, four to eight per fragment per colon), and stained with H&E. Colon samples were immediately frozen in liquid nitrogen and stored at -80° C. until used, mechanically homogenated with the aid of a pestle, and the obtained materials re-suspended in 1 ml of Trizol (Thermo ScientificTM). […]

Setting [1] is: wild-type mice, 30 mg/kg, Real-Time PCR, FIG. 3.

As to `CC[C@]1(O)C[C@H]2[C@@H]3CC[C@H]([C@H](C)CC#N)[C@@]3(C)CC[C@@H]2[C@@]2(C)CC[C@@H](O)C[C@@H]12` [PBT110B, 3α,6α-dihydroxy-6β-ethyl-24-nor-5β-cholan-23-nitrile], the “development and severity of colitis assessed by body weight lost, CDAI and histological sections” value (Gpbar1+/+ mice) is “attenuated”. For the setting “Gpbar1-/- mice”, the “development and severity of colitis assessed by body weight lost, CDAI and histological sections” value was “failed to do the same”. Also, the “beneficial effects on colon cytokine expression (pro-inflammatory cytokines, IL-10)” value (mice lacking the receptor (Gpbar1-/-), 30 mg/kg, FIG. 3) is recorded as “lost”. For the same compound, under setting [1], the “expression of pro-inflammatory cytokines (Il-6, Il-1β, TNF-α) in the colon” value is on record as “reducing” and the “expression of the anti-inflammatory cytokine IL-10 in the colon” value is “increasing”.
